In paper PMC6691385, “Au Hollow Nanorods-Chimeric Peptide Nanocarrier for NIR-II Photothermal Therapy and Real-time Apoptosis Imaging for Tumor Theranostics” (Theranostics, 2019):

How the values were obtained:
HeLa cells = experiment: MTT cytotoxicity assay; type: cell-based; details: 10 ppm; cells treated with AuHNRs-DTPP and laser
Method: The in vitro cytotoxicity of AuHNRs-DTPP nanocarrier against HeLa cells were studied by standard MTT assay. In brief, HeLa cells were seeded on 96-well plates with a density of 5000 cells per well. When the cell density came to 80%, the medium was removed and various concentrations of AuHNRs-DTPP nanocarrier in DMEM with 10% FBS were added. After incubation for 6 h, the medium was replaced by 200 μL of fresh medium. For none-treated group or single laser treated group, cells received corresponding treatment and then further incubated for 48 h. And for combined treatment group, cells received 1064 nm laser irradiation and incubated for 2 h. After that, cells received laser irradiation (633 nm) and then further incubated for 48 h. Then, the standard MTT assay was conducted to determine the cell viability. And for COS-7, same operation process was taken.

Solubility of DTPP = type: physicochemical
[1] = Fluorescence, ROS and singlet oxygen generation, cell-free
H22 tumor = experiment: In vivo fluorescence imaging; details: tumor bearing mice; i.v.; before laser irradiation, within 8 h
Method: Animal experiments were conducted based on the guidelines for laboratory animals established by the Huazhong Agricultural University. In vivo imaging started when tumor volume approximated 200 mm^3. For photothermal imaging 200 μL AuHNRs-DTPP was intravenously injected into the mice, and the equal volume of PBS buffer was taken as the control. Infrared thermal images were recorded by using a FLIR E85 camera under 1064 nm laser irradiation at a power density of 0.69 W·cm^-2. In vivo fluorescence imaging was collected by a Maestro in vivo imaging system. The tumor bearing mice were intravenously administrated with 200 μL AuHNRs-DTPP (1 g·L^-1) or free DTPP (30 mg·L^-1) solution. Then the mice were anesthetized and imaged at pre-set time. It should be noted that mice received 1064 nm laser irradiation (10 min, 0.69 W·cm^-2) at the 8th h post-injection.

Molecule	effect on cell viability as ROS scavenger (HeLa cells)	solubility in DI water (Solubility of DTPP; DI water)	solubility in PBS (Solubility of DTPP; PBS)	singlet oxygen ESR signal ([1]; treated with laser)	singlet oxygen ESR signal ([1]; without laser irradiation)	in vivo fluorescence signal (H22 tumor)
O=C1O[C@H]([C@@H](O)CO)C(O)=C1O [Vitamin C]	significantly improve the cell viability					
PpIX-PEG8-GGK(TPP)GRDEVDGC [DTPP]		almost insoluble	good solubility	obvious ESR signal	no ESR signal	fluorescence signal appeared all over the body
